Source: patent publication EP0840781B1, “METHODS AND DEVICES FOR THE REMOVAL OF PSORALENS FROM BLOOD PRODUCTS” (Cerus Corporation, priority 1995, dated 1996)
Where two headings read alike, the source gives them in different places.

What was measured:
HIV-1 = settings: 1 Minute Irradiation
Experimental: Pathogen inactivation efficiency of several compounds described herein was evaluated by examining the ability of the compounds to inactivate cell-free virus (HIV). Inactivation of cell-free HIV was performed as follows.
As in the R17 assay, small aliquots of the compounds listed in TABLES 10 and 11, below, at the concentrations listed in the table, were added to stock HIV-1 to a total of 0.5 mL. The stock HIV (10^5 - 10^7 plaque forming units/mL) was in DMEM/15% FBS. […] Controls included HIV-I stock only, HIV-1 plus UVA only, and HIV-I plus the highest concentration of each psoralen tested, with no UVA. Post irradiation. all samples were store frozen at -70° C until assayed for infectivity by a microtiter plaque assay. Aliquots for measurement of residual HIV infectivity in the samples treated with a compound of the present invention were withdrawn and cultured.
Residual HIV infectivity was assayed using an MT-2 infectivity assay. […] The assay medium was 85% DMEM (with a high glucose concentration) containing 100 µg of streptomycin, 100 U of penicillin, 50 µg of gentamicin, and 1 µg of amphotericin B per mL, 15% FBS and 2 µg of Polybrene (Sigma Chemical Co., St. Louis, Mo.) per mL. Test and control samples from the inactivation procedure were diluted in 50% assay medium and 50% normal human pooled plasma. The samples were serially diluted directly in 96-well plates (Coming Glass Works, Coming, N.Y.). The plates were mixed on an oscillatory shaker for 30 seconds and incubated at 37°C in a 5% CO2 atmosphere for 1 to 18 hours. […] After an additional 1 hour of incubation at 37°C in 5% CO2, 0.075 mL of assay medium containing 1.6% SeaPlaque agarose (FMC Bioproducts, Rockland, Maine) and prewarmed to 38.5°C was added to each well. The plates were kept at 37°C for a few minutes until several plates had accumulated and then centrifuged in plate carriers at 600 x g for 20 minutes in a centrifuge precooled to 10°C. In the centrifuge, cell monolayers formed prior to gelling of the agarose layer. The plates were incubated for 5 days at 37°C in 5% CO2 and stained by the addition of 0.05 mL of 50 µg/mL propidium iodide (Sigma Chemical Co.) in phosphate-buffered saline (pH 7.4) to each well. After 24 to 48 hours, the red fluorescence-stained microplaques were visualized by placing the plates on an 8,000 µW/cm^2 304 nm UV light box (Fotodyne, Inc., New Berlin, Wis.). The plaques were counted at a magnification of x20 to x25 through a stereomicroscope.

[1] = tested on: Salmonella typhimurium tester strains TA97a, TA98, TA100, TA102, TA1537 and TA1538
Source text: The second property that is important in testing a compound for use in methods described herein is mutagenicity. The most widely used mutagen/carcinogen screening assay is the Ames test. This assay is described by D.M. Maron and B.N. Ames in Mutation Research 113:173 ( 1983) and a specific screen is described in detail in Example 17, below. The Ames test utilizes several unique strains of Salmonella typhimurium that are histidine- dependent for growth and that lack the usual DNA repair enzymes. The frequency of normal mutations that render the bacteria independent of histidine (i.e., the frequency of spontaneous revertants) is low. The test allows one to evaluate the impact of a compound on this revenant frequency.
Because some substances are not mutagenic by themselves, but are converted to a mutagen by metabolic action, the compound to be tested is mixed with the bacteria on agar plates along with the liver extract. The liver extract serves to mimic metabolic action in an animal.
The mixtures are allowed to incubate. Growth of bacteria (if any) is checked by counting colonies.
In this example the compounds described herein are tested for their dark mutagenicity using an Ames assay. The procedures used for the Salmonella mutagenicity test as described in detail by Maron and Ames were followed exactly. Maron, D.M. and B.N. Ames, Mutation Research 113: 173 ( 1983). A brief description for each procedure is given here. The tester strains TA97a, TA98, TA 100, TA102, TA1537 and TA1538 were obtained from Dr. Ames. TA97a, TA98, TA1537 and TA1538 are frameshift tester strains. TA100 and TA102 are base-substitution tester strains. Upon receipt each strain was cultured under a variety of conditions to confirm the genotypes specific to the strains.
The first tests done with the strains were to determine the range of spontaneous reversion for each of the strains. With each mutagenicity experiment the spontaneous reversion of the tester strains to histidine independence was measured and expressed as the number of spontaneous revertants per plate. This served as the background controls.
For all experiments, the pre-incubation procedure was used. In this procedure one vial of each tester strain was thawed and 20 µL of this culture was added to 6 mL of Oxoid Nutrient Broth #2. This solution was allowed to shake for 10 hours at 37°C. In the pre-incubation procedure, 0.1 mL of this overnight culture was added to each of the required number of sterile test tubes. To half of the tubes 0.5 mL of a 10% S-9 solution containing Aroclor 1254 induced rat liver extract (Molecular Toxicology Inc., Annapolis, MD), and MgCl2, KCl, glucose-6-phosphate, NADP, and sodium phosphate buffer (Sigma, St. Louis, Missouri) were added. To the other half of the tubes 0.5 mL of 0.2M sodium phospate buffer, pH 7.4, was used in place of the S-9 mixture (the - S9 samples). Finally 0.1 mL of the test solution containing either 0, 0.1, 0.5, 1, 5, 10, 50, 100, 250, or 500 µg/mL of the test compound was added. The 0.7 mL mixture was vonexed and then pre-incubated while shaking for 20 minutes at 37°C. After shaking, 2 mL of molten top agar supplemented with histidine and biotin were added to the 0.7 mL mixture and immediately poured onto a minimal glucose agar plate (volume of base agar was 20 mL). The top agar was allowed 30 minutes to solidify and then the plates were inverted and incubated for 44 hours at 37°C. After incubation the number of revertant colonies on each plate were counted.
Maron and Ames (1983) describe the conflicting views with regard to the statistical treatment of data generated from the test.

R17 = experiment: r-17 bacteriophage assay: R17 treated with compound and UVA, remaining titer by plaque count on Hfr 3000 bacteria; type: cell-based; settings: for efficiency at inactivating R17 compared with AMT: constant concentration, varying doses of UV light 1.0-3.0 J/cm^2 (FIGS. 11-17); for R17 inactivation efficiency compared with AMT: varying concentration (Tables 7 and 8, FIGS. 6-10)
Experimental: In the r-17 assay, the bacteriophage was placed in a solution with each compound tested and was then irradiated. The ability of the phage to subsequently infect bacteria and inhibit their growth was measured. The bacteriophage was selected for its relatively accessible nucleic acid such that the culture growth inhibition would accurately reflect nucleic acid damage by the test compounds. The bacteriophage assay for nucleic acid binding to test compounds offers a safe and inexpensive procedure to identify compounds likely to display efficient pathogen inactivation. Previous experiments support that the r-17 assay accurately measures HIV-1 sensitivity to similar compounds. […] Modified Eagles Medium (DMEM) to a final phage concentration of 10^9/mL. An aliquot (0.5 mL) was transferred to a 1.5 mL snap-top polyethylene tube. […] Louis, MO). The tubes were placed in a light device as described in EXAMPLE 1 and irradiated for between 1 and 10 minutes. […] To make the dilutions. a 0.100 mL aliquot of the irradiated solution of phage and test compound was added to the first dilution tube of 0.4 mL of media then 0.020 mL of this solution was added to the second tube of 0.5 mL medium (1:25). […] After the top agar hardened, the plates were incubated at 37 °C overnight. The plaque forming units were then counted the following morning and the titer of the phage remaining after phototreatment was calculated based on the dilution factors. The following controls were run: the "phage only" in which phage was not treated with test compound and not irradiated (listed as "starting titer" in the tables below); the "UV only" in which the phage was irradiated in the absence of test compound; and the "dark" control in which the phage/test compound solution was not irradiated before it was diluted and plated. Compounds described herein were also tested at a constant concentration for varying doses of UV light. […] The compound tested was added at the desired concentration and the samples were vortexed. […] Between each 1.0 J/cm^2 intervals, 100µL was removed from each sample and placed in the first corresponding dilution tube, then five sequential dilutions were performed for each compound tested, at all 3 irradiation doses, as described above in this example. […] The contents of each tube was poured into its own LB plate and the plates were incubated overnight at 37 °C. Plaques were counted by visual inspection the following morning.

[2] = 16 µM, HIV Starting Titer Approximately 5 Logs (Table 10)
[3] = 32 µM, HIV Starting Titer Approximately 5 Logs (Table 10)
[4] = 64 µM, HIV Starting Titer Approximately 5 Logs (Table 10)
[5] = 16 µM, 1 Minute irradiation = 1.2 J/cm^2, Starting Titer Approx. 7.1 Logs (Table 8)
[6] = 32 µM, 1 Minute irradiation = 1.2 J/cm^2, Starting Titer Approx. 7.1 Logs (Table 8)
[7] = 64 µM, 1 Minute irradiation = 1.2 J/cm^2, Starting Titer Approx. 7.1 Logs (Table 8)
[8] = 16 µM, HIV Starting Titer Approximately 5.4 Logs (Table 11)
[9] = 32 µM, HIV Starting Titer Approximately 5.4 Logs (Table 11)
[10] = 64 µM, HIV Starting Titer Approximately 5.4 Logs (Table 11)

Cc1oc2c(C)c3oc(=O)cc(C)c3cc2c1COCCOCCNCCCCN [Compound 8, 4'-(12-amino-8-aza-2,5-dioxa)dodecyl-4,5',8-trimethylpsoralen]
HIV Log Kill (HIV-1; [2]): 1.1 | HIV Log Kill (HIV-1; [3]): 1.9 | HIV Log Kill (HIV-1; [4]): 3.7

Cc1oc2c(C)c3oc(=O)cc(C)c3cc2c1COCCCN [Compound 4, 4'-(5-amino-2-oxa)pentyl-4,5',8-trimethylpsoralen]
revertant colonies, TA100 +S9 ([1]; 5 µg/plate): -10 | revertant colonies, TA100 -S9 ([1]; 5 µg/plate): -41 | revertant colonies, TA1538 +S9 ([1]; 5 µg/plate): 7 | revertant colonies, TA1538 -S9 ([1]; 5 µg/plate): -2 | revertant colonies, TA100 +S9 ([1]; 10 µg/plate): -3 | revertant colonies, TA100 -S9 ([1]; 10 µg/plate): 3 | revertant colonies, TA1538 +S9 ([1]; 10 µg/plate): -2 | revertant colonies, TA1538 -S9 ([1]; 10 µg/plate): -2 | mutagenic response (Ames, summary) ([1]; two-fold or greater increase in revertants above background and dose dependent response): no mutagenicity | HIV Log Kill (HIV-1; [3]): 2.2 | HIV Log Kill (HIV-1; [4]): >3.6 | R17 Log Kill (R17; [5]): 2.3 | R17 Log Kill (R17; [6]): 4.3 | R17 Log Kill (R17; [7]): >6.1

Cc1oc2c(C)c3oc(=O)cc(C)c3cc2c1CNCCCCCN [Compound 10, 4'-(7-amino-2-aza)heptyl-4,5',8-trimethylpsoralen]
HIV Log Kill (HIV-1; [8]): 2.0 | HIV Log Kill (HIV-1; [9]): >3.5 | HIV Log Kill (HIV-1; [10]): >3.5 | efficiency at inactivating R17 compared with AMT (R17): more efficient at inactivating R17 than was AMT

Nc1c2ccccc2nc2ccccc12 [9-Amino-acridine, reference compound]
revertant colonies, TA98 -S9 ([1]; 10 µg/plate): 284 | revertant colonies, TA1537 -S9 ([1]; 10 µg/plate): 284

Cc1cc(=O)oc2c(C)c3oc(CNCCN)c(C)c3cc12 [Compound 16, 5'-(4-amino-2-aza)butyl4,4',8-trimethylpsoralen]
R17 inactivation efficiency compared with AMT (R17): significantly higher inactivation efficiency than does AMT

[N-]=[N+]=[N-] [sodium azide, reference compound]
revertant colonies, TA100 -S9 ([1]; 1.5 µg/plate (positive control)): 965 | revertant colonies, TA1538 -S9 (Table 18 (A)) ([1]; 1.5 µg/plate (positive control), Table 18 (A), background 126): 965

Cc1oc2c(C)c3oc(=O)cc(C)c3cc2c1CNCCCOCCCCOCCN [Compound 9, 4'-(13-amino-2-aza-6,11-dioxa)tridecyl-4,5',8-trimethylpsoralen]
HIV Log Kill (HIV-1; [8]): 0.8 | HIV Log Kill (HIV-1; [9]): 1.4 | HIV Log Kill (HIV-1; [10]): 2.7

Cc1oc2c(C)c3oc(=O)cc(C)c3cc2c1COCCOCCN [Compound 7, 4'-(7-amino-2,5-oxa)heptyl-4.5',8-trimethylpsoralen]
HIV Log Kill (HIV-1; [2]): 0.8 | HIV Log Kill (HIV-1; [3]): 2.1 | HIV Log Kill (HIV-1; [4]): 3.5 | R17 Log Kill (R17; 16 µM, 1 Minute Irradiation, Starting Titer Approx. 7.1 Logs (Table 9)): >6 | R17 Log Kill (R17; 32 µM, 1 Minute Irradiation, Starting Titer Approx. 7.1 Logs (Table 9)): >6 | R17 Log Kill (R17; 64 µM, 1 Minute Irradiation, Starting Titer Approx. 7.1 Logs (Table 9)): >6

OO [hydrogen peroxide, reference compound]
revertant colonies, TA102 -S9 ([1]; Salmonella typhimurium, pH 7.4): 660

Cc1oc2c(C)c3oc(=O)cc(C)c3cc2c1CNCCCNCCCN [Compound 12, 4'-(9-amino-2,6-diaza)nonyl-4.5',8-trimethylpsoralen]
HIV Log Kill (HIV-1; [8]): 0.4 | HIV Log Kill (HIV-1; [9]): 0.8 | HIV Log Kill (HIV-1; [10]): 1.3 | efficiency at inactivating R17 compared with AMT (R17): more efficient at inactivating R17 than was AMT

Cc1oc2c(C)c3oc(=O)cc(C)c3cc2c1CNCCCNCCCCNCCCN [Compound 15, 4'-(14-amino-2,6,11-triaza)tetradecyl-4,5',8-trimethylpsoralen]
efficiency at inactivating R17 compared with AMT (R17): more efficient at inactivating R17 than was AMT

Cc1oc2c(C)c3oc(=O)cc(C)c3cc2c1CNCCCN [Compound 5, 4'-(5-amino-2-aza)pentyl4,5',8-trimethylpsoralen]
HIV Log Kill (HIV-1; [2]): 0.9 | HIV Log Kill (HIV-1; [3]): 1.3 | HIV Log Kill (HIV-1; [4]): >2.6 | R17 Log Kill (R17; [5]): 5.6 | R17 Log Kill (R17; [6]): >6.1 | R17 Log Kill (R17; [7]): >6.1 | R17 inactivation efficiency compared with AMT (R17): significantly higher inactivation efficiency than does AMT
